# Experimental data as given in patent US9862711B2, “Pyrazine derivatives as phosphatidylinositol 3-kinase inhibitors” (NOVARTIS AG, priority 2014, dated 2018).
# Molecular target: PI 3-kinase gamma (Homo sapiens (Human), UniProt P48736)
# Experiment: TR-FRET Adapta assay (Assay E)
# Type: biochemical
# Details: read-out: Assay E PI3Kγ IC50
# Excerpt: TR-FRET Adapta Assay for PI 3-Kinase Gamma (E), PI 3-Kinase Delta (F)
# The TR-FRET Adapta™ Universal Kinase Assay Kit was purchased from Invitrogen Corporation (Carlsbad/CA, USA) (Cat. No. PV5099). The kit contains the following reagents: Adapta Eu-anti-ADP Antibody (Europium labeled anti-ADP antibody in HEPES buffered saline, Cat. No. PV5097), Alexa Fluor® 647-labeled ADP tracer (Alexa Fluor® 647-labeled ADP tracer in HEPES buffered saline, Cat. No. PV5098), TR-FRET dilution buffer pH 7.5 (Cat. No. PV3574). PIK3CD substrate phosphatidylinositol (PI) was obtained from Invitrogen (vesicules consisting of 2 mM phosphatidylinositol (PI) in 50 mM HEPES pH7.5; Cat. No. PV5371). PIK3CG substrate phosphatidylinositol-4,5-bisphosphate (PIP(4,5)2 was obtained from Invitrogen (PIP2:PS large unilamellar vesicules consisting of 1 mM PIP2: 19 mM PS in 50 mM HEPES pH7.5, 3 mM MgCl2, 1 mM EGTA; Cat. No. PV5100).
# Time-Resolved Fluorescence Resonance Energy Transfer (TR-FRET) is a technology based on energy transfer between two adjacent dyes, from an excited electron in one dye (the donor) to an electron of an adjacent dye (the acceptor) through resonance, then released as a photon. This energy transfer is detected by an increase in the fluorescence emission of the acceptor, and a decrease in the fluorescence emission of the donor. TR-FRET assays for protein kinases use a long-lifetime lanthanide Terbium or Europium chelates as the donor species which overcome interference from compound autofluorescence or light scatter from precipitated compounds, by introducing a delay after excitation by a flashlamp excitation source. Results are often expressed as a ratio of the intensities of the acceptor and donor fluorophores. The ratiometric nature of such a value corrects for differences in assay volumes between wells, as well as corrects for quenching effects due to colored compounds. The Adapta™ assay can be divided into two phases: a kinase reaction phase and an ADP detection phase. In the kinase reaction phase, all kinase reaction components are added to the well and the reaction is allowed to incubate for a set period of time specific for each kinase. After the reaction, a detection solution of Eu-labeled anti-ADP antibody, Alexa Fluor® 647-labeled ADP tracer, and EDTA (to stop the kinase reaction) are added to the assay well. ADP formed by the kinase reaction will displace the Alexa Fluor® 647-labeled ADP tracer from the antibody, resulting in a decrease in TR-FRET signal. In the presence of an inhibitor, the amount of ADP formed by the kinase reaction is reduced, and the resulting intact antibodytracer interaction maintains a high TR-FRET signal. In the Adapta™ assay, the donor (Europium-anti-ADP antibody) is excited at 340 nm and will transfer its energy to the acceptor (Alexa Fluor® 647-labeled ADP tracer). The emission from the Alexa Fluor® 647 can be monitored with a filter centered at 665 nm because it is located between the emission peaks of the donor, which is measured at 615/620 nm. 50 nL of compound dilutions were dispensed onto white 384-well small volume polystyrene plate. Then 5 μL of either PI 3-kinase gamma or PI 3-kinase delta and lipid substrate (P1 or PIP2:PS) followed by 5 μL of ATP (final assay volume 10 μL) are incubated at RT. The standard reaction buffer for the Adapta™ TR-FRET assay contained 10 mM Tris-HCl pH 7.5, 3 mM MgCl2, 50 mM NaCl, 1 mM DTT, 0.05% CHAPS ((3-[(3-cholamidopropyl)dimethylammonio]-1-propanesulfonate). Reactions were stopped with 5 μL of a mixture of EDTA containing the Eu-labeled anti-ADP antibody and the Alexa Fluor® 647-labeled ADP tracer in TR-FRET dilution buffer. Plates are read 15 to 60 mins later in a Synergy2 reader using an integration time of 0.4 seconds and a delay of 0.05 seconds. Control for the 100% inhibition of the kinase reaction was performed by replacing the PI 3-kinase by the standard reaction buffer. […]
# Chain of PI 3-kinase gamma (P48736 whole entry): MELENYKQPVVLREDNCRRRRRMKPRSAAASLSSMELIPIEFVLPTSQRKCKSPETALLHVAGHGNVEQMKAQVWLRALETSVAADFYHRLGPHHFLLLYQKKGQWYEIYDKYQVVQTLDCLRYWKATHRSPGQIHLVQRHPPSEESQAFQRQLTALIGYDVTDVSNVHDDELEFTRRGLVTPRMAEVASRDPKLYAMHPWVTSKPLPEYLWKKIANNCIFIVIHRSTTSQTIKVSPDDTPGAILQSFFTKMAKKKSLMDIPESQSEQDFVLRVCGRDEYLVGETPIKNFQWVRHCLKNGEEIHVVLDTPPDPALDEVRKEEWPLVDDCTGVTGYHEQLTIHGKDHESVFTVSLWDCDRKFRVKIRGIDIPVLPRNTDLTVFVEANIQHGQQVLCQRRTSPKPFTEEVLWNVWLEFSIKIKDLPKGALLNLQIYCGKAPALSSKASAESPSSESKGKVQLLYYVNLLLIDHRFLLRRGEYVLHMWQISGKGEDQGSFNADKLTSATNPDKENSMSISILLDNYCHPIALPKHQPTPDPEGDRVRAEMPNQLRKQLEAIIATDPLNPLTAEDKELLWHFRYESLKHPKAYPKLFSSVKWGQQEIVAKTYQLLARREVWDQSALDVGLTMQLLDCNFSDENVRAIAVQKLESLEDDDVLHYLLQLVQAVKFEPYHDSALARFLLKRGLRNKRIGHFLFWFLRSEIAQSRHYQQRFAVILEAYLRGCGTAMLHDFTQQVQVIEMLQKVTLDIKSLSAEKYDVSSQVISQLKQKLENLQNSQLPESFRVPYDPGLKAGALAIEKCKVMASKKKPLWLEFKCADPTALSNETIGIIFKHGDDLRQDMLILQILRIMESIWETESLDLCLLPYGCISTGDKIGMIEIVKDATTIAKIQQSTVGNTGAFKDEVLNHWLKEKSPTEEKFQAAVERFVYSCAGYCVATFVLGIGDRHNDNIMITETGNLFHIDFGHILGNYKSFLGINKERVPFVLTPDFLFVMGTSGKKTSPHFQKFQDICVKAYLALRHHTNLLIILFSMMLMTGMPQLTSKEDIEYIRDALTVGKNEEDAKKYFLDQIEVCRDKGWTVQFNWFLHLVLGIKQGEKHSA
row,Structure (SMILES),IC50
1,"Cc1ccc(S(=O)(=O)NCCC(C)(C)O)cc1-c1cncc(-c2cn(CCN3CCOCC3)nc2C)n1 [Example 10, N-(3-Hydroxy-3-methyl-butyl)-4-methyl-3-{6-[3-methyl-1-(2-morpholin-4-yl-ethyl)-1H-pyrazol-4-yl]-pyrazin-2-yl}-benzenesulfonamide]",27 nM
2,"Cc1ccc(S(=O)(=O)NCC(C)(C)O)cc1-c1cncc(-c2cn(C)nc2C)n1 [Example 2, 3-[6-(1,3-Dimethyl-1H-pyrazol-4-yl)-pyrazin-2-yl]-N-(2-hydroxy-2-methyl-propyl)-4-methyl-benzenesulfonamide]",19 nM
3,"Cc1ncc(-c2cncc(-c3cc(S(=O)(=O)NCCCO)ccc3C)n2)s1 [Example 1, N-(3-Hydroxy-propyl)-4-methyl-3-[6-(2-methyl-thiazol-5-yl)-pyrazin-2-yl]-benzenesulfonamide]",22 nM
4,"Cc1ccc(S(=O)(=O)NCC2(C)COC2)cc1-c1cncc(-c2cn(C)nc2C)n1 [Example 4, Trans 3-[6-(1,3-Dimethyl-1H-pyrazol-4-yl)-pyrazin-2-yl]-4-methyl-N-(3-methyl-oxetan-3-ylmethyl)-benzenesulfonamide]",14 nM
5,"Cc1ccc(S(=O)(=O)NCCC(C)(C)O)cc1-c1cncc(-c2cnn(CCN3CCOCC3)c2)n1 [Example 9, N-(3-Hydroxy-3-methyl-butyl)-4-methyl-3-{6-[1-(2-morpholin-4-yl-ethyl)-1H-pyrazol-4-yl]-pyrazin-2-yl}-benzenesulfonamide]",160 nM
6,"Cc1ccc(S(=O)(=O)NCC(C)(C)CO)cc1-c1cncc(-c2cn(C)nc2C)n1 [Example 8, 3-[6-(1,3-Dimethyl-1H-pyrazol-4-yl)-pyrazin-2-yl]-N-(3-hydroxy-2,2-dimethyl-propyl)-4-methyl-benzenesulfonamide]",20 nM
7,"Cc1ncc(-c2cncc(-c3cc(S(=O)(=O)N[C@H]4CC[C@H](O)CC4)ccc3C)n2)s1 [Example 5, Trans N-(4-Hydroxycyclohexyl)-4-methyl-3-(6-(2-methylthiazol-5-yl)pyrazin-2-yl)benzenesulfonamide]",15 nM
8,"Cc1ccc(S(=O)(=O)N[C@H]2CC[C@H](O)CC2)cc1-c1cncc(-c2cccnc2)n1 [Example 11, Trans N-(4-Hydroxy-cyclohexyl)-4-methyl-3-(6-pyridin-3-yl-pyrazin-2-yl)-benzenesulfonamide]",88 nM
9,"Cc1ccc(S(=O)(=O)NCCC(C)(C)O)cc1-c1cncc(-c2cn(C)nc2C)n1 [Example 3, 3-[6-(1,3-Dimethyl-1H-pyrazol-4-yl)-pyrazin-2-yl]-N-(3-hydroxy-3-methyl-butyl)-4-methyl-benzenesulfonamide]",48 nM
